Measured values taken from PubChem BioAssay (NCI).
Several values for one entry are separate records, joined by “and”; a condition that tells them apart may be missing. Equal values may be shown once.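 Values below derive from 48-hour exposures of cells grown in 96-well plates, with endpoints linearly interpolated between the two concentrations bracketing the appropriate inhibition level. The concentration for 50% growth inhibition is given as GI50. At the TGI there is no net growth.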

Assays:
Experiment in all cases: inhibition of tumour cell growth, NCI panel, 48 h
RPMI-8226 leukemia = test system: RPMI-8226 leukemia
MALME-3M melanoma = test system: MALME-3M melanoma
HCT-116 colon = test system: HCT-116 colon
NCI-H23 lung = test system: NCI-H23 lung
DU-145 prostate = test system: DU-145 prostate
UACC-257 melanoma = test system: UACC-257 melanoma
CCRF-CEM leukemia = test system: CCRF-CEM leukemia
SK-OV-3 ovarian = test system: SK-OV-3 ovarian
OVCAR-8 ovarian = test system: OVCAR-8 ovarian
HCT-15 colon = test system: HCT-15 colon

Compound	TGI (RPMI-8226 leukemia)	TGI (MALME-3M melanoma)	TGI (HCT-116 colon)	TGI (NCI-H23 lung)	TGI (DU-145 prostate)	TGI (UACC-257 melanoma)	TGI (CCRF-CEM leukemia)	TGI (SK-OV-3 ovarian)	TGI (OVCAR-8 ovarian)	TGI (HCT-15 colon)	GI50 (HCT-116 colon)	GI50 (NCI-H23 lung)	GI50 (DU-145 prostate)	GI50 (UACC-257 melanoma)	GI50 (CCRF-CEM leukemia)	GI50 (SK-OV-3 ovarian)	GI50 (HCT-15 colon)	GI50 (RPMI-8226 leukemia)	GI50 (MALME-3M melanoma)	GI50 (OVCAR-8 ovarian)
OC(C1=C/C(=C\c2ccncc2)c2ccccc21)c1ccncc1 (configuration not stated)	22.4 µM	38.3 µM	28.2 µM	39.2 µM	62.2 µM	19.1 µM	45.9 µM	31.8 µM	> 100 µM	> 63.5 µM	–	–	–	–	–	–	–	–	–	–
c1cc2c(cc1C(N1CCNCC1)N1CCNCC1)OCO2	> 100 µM	> 100 µM	> 100 µM	> 100 µM	> 100 µM	> 100 µM	–	> 100 µM	> 100 µM	> 100 µM	–	–	–	–	–	–	–	–	–	–
Nc1nc(Nc2ccc3c(c2)CC[C@@H](N2CCCC2)CC3)nn1-c1cc2c(nn1)-c1ccccc1CCC2	–	–	3.08 µM	3.56 µM	3 µM	3.66 µM	2.53 µM	3.34 µM	–	2.26 µM	1.5 µM	1.72 µM	1.35 µM	1.89 µM	0.478 µM	1.66 µM	0.798 µM	–	–	–
O=C(NC1CC1)c1ccc(-c2nc3ccc4[nH]ncc4c3c3c2CCCC3)cc1	12 µM	11.6 µM	14 µM	31.3 µM	20.2 µM	34.7 µM	> 50 µM	–	> 50 µM	13.9 µM	1.34 µM	3.41 µM	2.43 µM	9.1 µM	2.06 µM	–	1.58 µM	1.08 µM	3.46 µM	2.34 µM
CCN1C(=O)N(CC)C2C1NN=c1s/c(=C3\C(=O)N(CC(C)C)c4ccccc43)c(=O)n12 (configuration not stated)	> 100 µM	> 77.7 µM	> 100 µM	> 100 µM	> 30.4 µM	> 100 µM	> 100 µM	39.8 µM	> 100 µM	> 100 µM	0.441 µM	2.19 µM	0.777 µM	–	0.464 µM	0.493 µM	0.438 µM	1.42 µM	0.885 µM	1.33 µM
O=C(c1cc(F)c(Cl)cc1Cl)N1N=C(c2ccccc2)CC1(O)c1ccccc1 (configuration not stated)	35.4 µM	55.6 µM	21.7 µM	48.2 µM	35.9 µM	51.6 µM	–	80.1 µM	72.4 µM	28.3 µM	10.1 µM	20.2 µM	17.3 µM	24.7 µM	–	28.4 µM	13.8 µM	11.5 µM	25.5 µM	25.5 µM
Fc1ccc(Oc2nccc(-c3c(-c4ccc(F)cc4)ncn3C3CCNCC3)n2)cc1	> 25 µM	> 25 µM	> 25 µM	–	> 25 µM	–	–	> 25 µM	> 25 µM	> 25 µM	> 25 µM	–	> 25 µM	–	–	> 23.9 µM	> 25 µM	> 25 µM	> 25 µM	> 25 µM
COC1/C=C\C=C(/C)C(=O)Nc2cc3nc4ccc(Br)cc4oc-3c(c2=O)CC(C)CC(OC)C(O)C(C)/C=C(\C)C1OC(N)=O (configuration not stated)	16 µM	12.6 µM	4.92 µM	–	18 µM	6.93 µM	1.9 µM	15.3 µM	14.5 µM	6.99 µM	0.00083 µM	–	0.00403 µM	0.00321 µM	0.00247 µM and 0.0182 µM	–	0.00583 µM	0.00867 µM	0.00493 µM	–
c1ccc(C(=NNc2nc3ccccc3o2)c2ccccn2)nc1	–	–	–	26.6 µM and 27.9 µM	19.4 µM and > 34.3 µM	0.633 µM	–	–	–	> 75.4 µM and 17.9 µM	0.0296 µM	0.0617 µM	0.0775 µM	0.163 µM	0.033 µM	0.0518 µM	0.0376 µM	0.047 µM	0.134 µM	0.0389 µM
CCC1=C[C@@H]2CN(C1)Cc1c([nH]c3ccccc13)[C@@](C(=O)OC)(c1cc3c(cc1OC)N(C=O)[C@H]1[C@@](O)(C(=O)OC)[C@H](OC(C)=O)[C@]4(CC)[C@@H]5C[C@@H]5CN5CC[C@]31[C@@H]54)C2	> 6.25 µM	–	–	> 6.25 µM	–	> 6.25 µM	> 6.25 µM	–	> 6.25 µM	> 6.25 µM	< 0.000625 µM	0.00318 µM	< 0.000625 µM	> 6.25 µM	< 0.000625 µM	< 0.000625 µM	0.107 µM	< 0.000625 µM	–	0.00268 µM
C/C=C(\C)C(=O)N[C@H]1[C@@H](OC(C)=O)C[C@]2(C)C3CC[C@@]4(C)C(CC[C@@H]4C(C)N(C)C)C3CCC2[C@H]1O (some centres not stated)	–	6.43 µM	4.34 µM	28.2 µM	21.3 µM	5.16 µM	21.2 µM	22.5 µM	43.4 µM	4.22 µM	1.88 µM	11.7 µM	6.4 µM	1.98 µM	3.57 µM	7.95 µM	1.46 µM	–	2.03 µM	11.2 µM
N=C1c2nc3n(c2C(=O)c2nc4n(c21)CCCC4)CCCC3	> 100 µM	3.7 µM	> 100 µM	3.86 µM	2.9 µM	4.81 µM	> 100 µM	> 100 µM	> 100 µM	6.62 µM	19.8 µM	1.37 µM	1.5 µM	1.67 µM	20.5 µM	34.2 µM	2.07 µM	27.5 µM	1.7 µM	32.8 µM
CCOC(=O)CCCn1c(SC)nc2cc(-c3ccco3)[nH]c2c1=O	> 100 µM	> 100 µM	> 100 µM	> 100 µM	> 100 µM	> 100 µM	> 100 µM	32.5 µM	> 100 µM	> 100 µM	49.8 µM	90.5 µM	> 100 µM	> 100 µM	> 100 µM	5.74 µM	> 100 µM	> 100 µM	> 100 µM	31.1 µM
COc1cc(NC(=O)c2cc(OC)c3ccn(C)c3c2)cc2c1C[C@]1(C)CC[C@@H](O)C(C)(C)[C@H]1O2	6.9 µM	70.5 µM	> 100 µM	> 100 µM	> 100 µM	> 100 µM	> 100 µM	> 100 µM	> 100 µM	> 100 µM	4.02 µM	17.3 µM	9.08 µM	7.6 µM	3.75 µM	6.41 µM	5.13 µM	1.35 µM	6.22 µM	26 µM
OCC(O)C(O)C(O)C1SC(c2ccccc2)=NN1c1ccccc1 (configuration not stated)	> 100 µM	> 100 µM	> 100 µM	> 95.7 µM	> 100 µM	> 100 µM	> 100 µM	76.9 µM	> 100 µM	> 100 µM	–	–	–	–	–	–	–	–	–	–
N#CC1=C(N)OC2=C(COc3ccc(F)cc32)C1c1ccc(Cl)cc1 (configuration not stated)	> 100 µM	94.9 µM	> 100 µM	93.6 µM	> 100 µM	> 100 µM	> 100 µM	> 100 µM	> 100 µM	> 100 µM	36.3 µM	29.6 µM	44.1 µM	41.6 µM	55.5 µM	53.1 µM	34.4 µM	26.6 µM	47.9 µM	51.1 µM
COC(=O)COc1ccc(/C=C2\N=C(c3ccccc3)N(c3cc(C(F)(F)F)ccc3Cl)C2=O)cc1	46.1 µM	> 100 µM	> 100 µM	> 100 µM	> 100 µM	–	–	> 100 µM	> 100 µM	> 100 µM	38.4 µM	> 100 µM	51.5 µM	–	–	> 100 µM	94.6 µM	19 µM	54.1 µM	40.4 µM
Cc1ccccc1CN1CC2=C(CCN(Cc3ccccc3)C2=O)N2CCN=C12	> 100 µM	> 100 µM	> 100 µM	> 100 µM	> 100 µM	> 100 µM	> 100 µM	> 52.6 µM	> 100 µM	> 100 µM	–	–	–	–	0.7 µM	–	–	–	9.84 µM	–
COc1ccc2nc(-c3ccccc3)cc(Nc3ccc(C(C)=O)cc3)c2c1	4.31 µM	18.7 µM	4.62 µM	11.9 µM	27.1 µM	32.6 µM	–	36.9 µM	35.8 µM	6.11 µM	1.54 µM	3.51 µM	14.1 µM	12 µM	–	16.1 µM	2.25 µM	1.72 µM	5.28 µM	4.17 µM
CCN(CC)CCOc1ccc(Nc2ncc3cc(-c4ccc(O)cc4)c(=O)n(C)c3n2)cc1	44.5 µM	2.44 µM	–	36.2 µM	26.3 µM	31.6 µM	> 26.4 µM	24.8 µM	15.2 µM	1.75 µM	–	12.7 µM	12.9 µM	7.57 µM	0.845 µM	0.0791 µM	0.191 µM	14.5 µM	0.734 µM	3.72 µM
C=C(Cl)COC(=O)Nc1cccc(Cl)c1	> 100 µM	–	78.7 µM	90.2 µM	> 100 µM	> 100 µM	> 100 µM	> 100 µM	> 100 µM	> 100 µM	–	–	–	–	–	–	–	–	–	–
CN(NC(=O)CC(=O)NN(C)C(=S)c1ccccc1)C(=S)c1ccccc1	> 100 µM	> 100 µM	> 100 µM	> 100 µM	> 100 µM	–	> 100 µM	> 100 µM	> 100 µM	> 100 µM	–	> 87.4 µM	> 59.2 µM	–	64.7 µM	–	32.1 µM	–	> 69.5 µM	> 66.7 µM
CC(C)(C)C(=O)Nc1ccccc1I(=O)=O	> 100 µM	> 100 µM	–	> 100 µM	> 100 µM	> 100 µM	> 100 µM	> 100 µM	> 100 µM	> 100 µM	–	> 100 µM	> 100 µM	> 100 µM	> 100 µM	> 100 µM	> 100 µM	> 100 µM	> 100 µM	> 100 µM
Nc1ccc(C(=O)c2ccc(N)c(Br)c2)cc1Br	3.73 µM	–	11.6 µM	> 100 µM	1.58 µM	> 100 µM	> 100 µM	32.6 µM	46.1 µM	> 100 µM	0.461 µM	1.16 µM	0.334 µM	14.4 µM	0.483 µM	0.425 µM	0.466 µM	0.346 µM	–	0.518 µM
C[C@@H]1O[C@@H](O[C@@H]2[C@@H](O)[C@H](OCCc3ccc(O)c(O)c3)O[C@H](COC(=O)/C=C/c3ccc(O)c(O)c3)[C@H]2O)[C@H](O)[C@H](O)[C@H]1O	43.4 µM	–	75.3 µM	–	> 100 µM	> 100 µM	–	> 100 µM	–	> 100 µM	36.1 µM	–	32.6 µM	62.9 µM	–	> 100 µM	> 100 µM	13.7 µM	–	–
C=C1C(=O)O[C@@H]2C1C[C@@H](O)/C(C)=C/C/C=C(\C)CCC[C@H](C)[C@H]2OC(C)=O (some centres not stated)	48.6 µM	–	27 µM	86.2 µM	45.4 µM	> 100 µM	40.2 µM	> 100 µM	> 100 µM	51.9 µM	14.1 µM	27.1 µM	20.4 µM	36.4 µM	21.2 µM	69.3 µM	22.2 µM	24.9 µM	–	35.5 µM
O=C(/C=C/C=C/c1ccccc1)CCc1ccccc1	–	> 100 µM	> 100 µM	> 100 µM	> 100 µM	> 100 µM	> 100 µM	> 100 µM	> 100 µM	> 100 µM	–	–	–	–	–	–	–	–	–	–
COc1ccc(/C=C\c2cc(OC)c(OC)c(OC)c2)cc1OC(=O)C(N)CCC(=O)O (configuration not stated)	–	–	–	0.000785 µM and 0.0056 µM	–	22.8 µM	> 100 µM	> 100 µM	–	–	0.000425 µM	–	0.000364 µM and 0.000444 µM and < 0.0001 µM	0.000603 µM	0.000576 µM	–	–	0.000691 µM and < 0.0316 µM	0.00136 µM	0.000112 µM
CC1(C)OC[C@@H]([C@@]2(CO[Si](C)(C)C(C)(C)C)CC=CC(=O)O2)O1	80.5 µM	47.6 µM	44.6 µM	–	40.9 µM	33.2 µM	> 100 µM	88.5 µM	> 100 µM	> 100 µM	17.6 µM	–	18.7 µM	13.8 µM	26.2 µM	30.4 µM	34.7 µM	24.2 µM	20.1 µM	33.9 µM
